Measurements reported in US20250326748A1, “COMPOUNDS AND METHODS FOR MODULATING SPLICING” (REMIX THERAPEUTICS INC., priority 2022, published 2025).

Legend:
[1] = system: HiBiT-tagged HTT protein; experiment: HiBiT protein abundance assay, HTT (K562 HiBiT knock-in); assay type: cell-based, human; conditions: HiBiT knock-in cells, 24 hours
How it was run: (§1)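 Endogenously HiBiT-tagged K562 knock-in lines treated 24 h at 37 °C with 10-point 3-fold dilutions (top 10 μM final, DMSO ≤0.25%) in IMDM+1% FBS. Lytic Nano-Glo luminescence normalized to DMSO and unmodified K562 controls; four-parameter fit gives 50%-abundance concentration (IC50).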

[2] = system: Target C mRNA; experiment: Splicing RT-qPCR panel, Target C canonical junction (CJ) mRNA; assay type: cell-based, human; conditions: Homo sapiens, read-out: Target C CJ (decrease in CJ mRNA levels, IC50)
How it was run: (§2)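 A673 cells (DMEM, 10% FBS) or K562 cells (IMDM, 10% FBS) treated 24 h at 37 °C with an 11-point 3-fold dilution, top 10 uM, DMSO ≤0.25%. Canonical-junction mRNA quantified in lysates by RT-qPCR, normalised to GAPDH, GUSB or PPIA and to DMSO (2^−ΔΔCt), then converted to % response.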

[3] = system: K562 cells; experiment: Cell viability, Cell Titer Glo 2.0 assay, K562; conditions: 72 hours
[4] = system: Target C; experiment: HiBiT protein abundance assay, Target C (K562 HiBiT knock-in); assay type: cell-based, human; conditions: HiBiT knock-in cells, 24 hours
How it was run: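 K562 HiBiT knock-in cells (10000/well) in IMDM + 1% FBS were treated for 24 h at 37° C. with a 10-point 3-fold dilution series (top 10 μM final), with DMSO ≤0.25%. Unmodified K562 served as baseline. HiBiT lytic luminescence was normalized to controls, and IC50 was interpolated at 50% from a four-parameter fit.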

[5] = system: HiBiT-tagged MYB protein; experiment: HiBiT protein abundance assay, MYB (K562 HiBiT knock-in); assay type: cell-based, human; conditions: HiBiT knock-in cells, 24 hours
How it was run: as §1

[6] = system: SMN2 mRNA; experiment: Splicing RT-qPCR panel, SMN2 canonical junction (CJ) mRNA; assay type: cell-based, human; conditions: Homo sapiens, read-out: SMN2 CJ (decrease in CJ mRNA levels, IC50)
How it was run: as §2

Row | SMILES | IC50 [1] [nM] | IC50 [2] [nM] | Effect on Cell Viability, K562 [3] | IC50 [4] [nM] | IC50 [5] [nM] | IC50 [6] [nM]
1 | Cn1cc2cc(-c3cc(Cl)c4cc(N5CCNCC5)cnc4n3)c(O)cc2n1 [Compound 102, 5-[4-chloro-6-(piperazin-1-yl)-1,8-naphthyridin-2-yl]-2-methylindazol-6-ol] | 100 to 1000 | 1000 to 10000 | B (100-1000 nM) | 100 to 1000 | < 100 | < 100
2 | Cn1cc2cc(-c3cc(Cl)c4cc(N5CCNCC5)cnc4n3)cc(F)c2n1 [Compound 103] | 100 to 1000 | 1000 to 10000 | B (100-1000 nM) | 100 to 1000 | < 100 | < 100
3 | Cc1c(O)c(-c2cc(Cl)c3cc(N4CCNCC4)cnc3n2)cc2cn(C)nc12 [Compound 154, 5-[4-chloro-6-(piperazin-1-yl)-1,8-naphthyridin-2-yl]-2,7-dimethylindazol-6-ol] | 100 to 1000 | 1000 to 10000 | A (<100 nM) | 100 to 1000 | < 100 | < 100
4 | Cn1cc2cc(-c3cc(Cl)c4cc(N5CCNCC5)cnc4n3)c(O)c(F)c2n1 [Compound 155, 5-[4-chloro-6-(piperazin-1-yl)-1,8-naphthyridin-2-yl]-7-fluoro-2-methylindazol-6-ol] | < 100 | 100 to 1000 | A (<100 nM) | 100 to 1000 | < 100 | < 100
5 | Cc1c(O)c(-c2ncc3cc(N4CC[C@@H](N)C4)cnc3n2)cc2cn(C)nc12 [Compound 159, (R)-5-(6-(3-aminopyrrolidin-1-yl)pyrido[2,3-d]pyrimidin-2-yl)-2,7-dimethyl-2H-indazol-6-ol 2,2,2-trifluoroacetate] | < 100 | 100 to 1000 | B (100-1000 nM) | 100 to 1000 | < 100 | < 100
6 | Cc1c(O)c(-c2ncc3cc(N4CC[C@H](N)C4)cnc3n2)cc2cn(C)nc12 [Compound 160, (S)-5-(6-(3-aminopyrrolidin-1-yl)pyrido[2,3-d]pyrimidin-2-yl)-2,7-dimethyl-2H-indazol-6-ol 2,2,2-trifluoroacetate] | < 100 | 1000 to 10000 | B (100-1000 nM) | 100 to 1000 | < 100 | < 100
7 | COc1nc(-c2cc3cn(C)nc3c(C)c2O)nc2ncc(N3CCC(N(C)C)CC3)cc12 [Compound 163, 5-{6-[4-(dimethylamino)piperidin-1-yl]-4-methoxypyrido[2,3-d]pyrimidin-2-yl}-2,7-dimethylindazol-6-ol] | 1000 to 10000 | > 10000 | B (100-1000 nM) | > 10000 | 100 to 1000 | < 100
8 | Cn1cc2cc(-c3cnc4cc(N5CCC(NC6CC6)C5)ccc4n3)c(O)c(F)c2n1 (stereo not drawn) [Compound 175, 5-[6-[3-(cyclopropylamino)pyrrolidin-1-yl]quinoxalin-2-yl]-7-fluoro-2-methyl-indazol-6-ol] | < 100 | 100 to 1000 | A (<100 nM) | 100 to 1000 | < 100 | < 100
9 | Cn1cc2cc(-c3cnc4cc(N5CC[C@H](NC6CC6)C5)ccc4n3)c(O)c(F)c2n1 [Compound 176, 5-[6-[(3S)-3-(cyclopropylamino)318quinoxaline-1-yl]318quinoxaline-2-yl]-7-fluoro-2-methyl-indazol-6-ol] | < 100 | 100 to 1000 | A (<100 nM) | < 100 | < 100 | < 100
10 | Cn1cc2cc(-c3cnc4cc(N5CC[C@@H](NC6CC6)C5)ccc4n3)c(O)c(F)c2n1 [Compound 177, 5-[6-[(3R)-3-(cyclopropylamino)318quinoxaline-1-yl]318quinoxaline-2-yl]-7-fluoro-2-methyl-indazol-6-ol] | < 100 | < 100 | A (<100 nM) | < 100 | < 100 | < 100
11 | Cn1cc2cc(-c3cnc4nc(N5CCC(NC6CC6)C5)ccc4n3)c(O)c(F)c2n1 (stereo not drawn) [Compound 178, 5-[6-[3-(cyclopropylamino)pyrrolidin-1-yl]pyrido[2,3-b]pyrazin-2-yl]-7-fluoro-2-methyl-indazol-6-ol] | 100 to 1000 | 100 to 1000 | B (100-1000 nM) | 100 to 1000 | 100 to 1000 | < 100
12 | Cc1nc2c(C)c(O)c(-c3cnc4cc(N5CCC(NC6CC6)C5)ccc4n3)cc2o1 (stereo not drawn) [Compound 182, 6-[6-[3-(cyclopropylamino)pyrrolidin-1-yl]quinoxalin-2-yl]-2,4-dimethyl-1,3-benzoxazol-5-ol] | < 100 | 100 to 1000 | A (<100 nM) | < 100 | < 100 | < 100
13 | CNC1CCN(c2cnc3nc(-c4cc5cn(C)nc5c(C)c4O)ccc3n2)C1 (stereo not drawn) [Compound 192, 2,7-dimethyl-5-{2-[3-(methylamino)337pyrrolidine-1-yl]pyrido[2,3-b]pyrazin-6-yl}indazol-6-ol] | 100 to 1000 | 100 to 1000 | B (100-1000 nM) | 100 to 1000 | 100 to 1000 | < 100
14 | Cc1c(O)c(-c2ccc3nc(N4C[C@@H](C)N[C@@H](C)C4)cnc3n2)cc2cn(C)nc12 [Compound 195, 5-{2-[(3R,5S)-3,5-dimethylpiperazin-1-yl]pyrido[2,3-b]pyrazin-6-yl}-2,7-dimethylindazol-6-ol] | 1000 to 10000 | > 10000 | B (100-1000 nM) | 1000 to 10000 | 100 to 1000 | < 100
15 | Cc1c(O)c(-c2ccc3nc(N4CCNCC4)cnc3n2)cc2cn(C)nc12 [Compound 197, 2,7-dimethyl-5-[2-(piperazin-1-yl)pyrido[2,3-b]pyrazin-6-yl]indazol-6-ol] | 100 to 1000 | 100 to 1000 | B (100-1000 nM) | 100 to 1000 | 100 to 1000 | < 100
16 | Cc1c(O)c(-c2ccc3nc(N4CCC(N(C)C)CC4)cnc3n2)cc2cn(C)nc12 [Compound 198] | 1000 to 10000 | 100 to 1000 | B (100-1000 nM) | 1000 to 10000 | 100 to 1000 | < 100
17 | Cc1cn2cc(-c3cnc4nc(C5CCNCC5)ccc4c3)cc(C)c2n1 [Compound 201] | > 10000 | < 100 | C (1000-9999 nM) | > 10000 | 1000 to 10000 | < 100
18 | CN[C@@H]1CCN(c2cnc3nc(-c4cc(F)c5nc(C)cn5c4)ncc3c2)C1 [Compound 202, (3R)-1-(2-{8-fluoro-2-methylimidazo[1,2-a]pyridin-6-yl}pyrido[2,3-d]pyrimidin-6-yl)-N-methylpyrrolidin-3-amine] | 100 to 1000 | 100 to 1000 | B (100-1000 nM) | 100 to 1000 | < 100 | < 100
